Calls of active or inactive are those of the source.
Tests used:
[1] = Luminescence Cell-Based Dose Retest to Confirm Inhibitors of Cancer Stem Cells. [Related pubchem assays (depositor defined):AID2717, AID2721]; type: functional; conditions: Homo sapiens
[2] = target: T1, Protein skinhead-1 (Caenorhabditis elegans, UniProt P34707); type: functional
T1 sequence (P34707 whole entry): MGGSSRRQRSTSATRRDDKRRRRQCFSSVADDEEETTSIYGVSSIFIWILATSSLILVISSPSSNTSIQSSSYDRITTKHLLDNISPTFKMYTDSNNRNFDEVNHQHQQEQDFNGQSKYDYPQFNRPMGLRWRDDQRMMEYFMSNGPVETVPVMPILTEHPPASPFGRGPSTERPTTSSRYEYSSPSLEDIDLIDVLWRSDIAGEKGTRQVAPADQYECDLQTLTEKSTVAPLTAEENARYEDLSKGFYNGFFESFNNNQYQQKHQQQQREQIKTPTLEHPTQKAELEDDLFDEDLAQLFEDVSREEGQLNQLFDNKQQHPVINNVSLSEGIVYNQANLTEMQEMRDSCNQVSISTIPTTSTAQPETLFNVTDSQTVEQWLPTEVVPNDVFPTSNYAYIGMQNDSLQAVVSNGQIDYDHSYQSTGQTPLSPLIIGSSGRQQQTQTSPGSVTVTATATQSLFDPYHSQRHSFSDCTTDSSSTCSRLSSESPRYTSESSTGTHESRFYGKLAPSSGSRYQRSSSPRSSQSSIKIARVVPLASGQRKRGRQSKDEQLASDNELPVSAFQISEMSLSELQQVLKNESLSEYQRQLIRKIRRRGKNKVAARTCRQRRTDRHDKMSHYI

[3] = target: Cytochrome P450 2D6 (Homo sapiens, UniProt P10635)
[4] = target: T2, Heat shock factor protein 1 (Mus musculus, UniProt P38532); assay: enhancement of HSF1-driven luciferase signal – cell-based, NIH3T3, luminescence, dose retest, confirmation (AID 435004); type: functional;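 also: stress induced by proteasome inhibitor MG132 added 30 min after compound; luciferase reporter driven by HSF1 response element in NIH3T3 cells; actives raise luminescence as potentiators of the MG132 stress response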
T2 sequence (P38532 whole entry): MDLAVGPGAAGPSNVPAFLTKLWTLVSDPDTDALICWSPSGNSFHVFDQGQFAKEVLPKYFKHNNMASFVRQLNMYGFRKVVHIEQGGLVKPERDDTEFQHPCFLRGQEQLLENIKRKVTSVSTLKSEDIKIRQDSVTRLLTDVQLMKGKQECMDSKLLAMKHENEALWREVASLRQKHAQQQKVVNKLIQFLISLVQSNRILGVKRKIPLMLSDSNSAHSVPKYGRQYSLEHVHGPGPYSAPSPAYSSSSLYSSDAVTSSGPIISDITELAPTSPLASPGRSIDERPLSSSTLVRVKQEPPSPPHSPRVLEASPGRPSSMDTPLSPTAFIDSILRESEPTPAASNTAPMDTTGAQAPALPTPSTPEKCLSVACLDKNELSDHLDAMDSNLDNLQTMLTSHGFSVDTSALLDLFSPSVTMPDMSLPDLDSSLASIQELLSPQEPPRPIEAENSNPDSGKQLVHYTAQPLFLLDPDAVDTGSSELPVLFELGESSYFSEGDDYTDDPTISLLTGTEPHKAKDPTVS

[5] = tested on: H9c2; assay: cells; type: functional, cell-based; conditions: Rattus norvegicus, H9c2, Myocardium;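 also: confirmatory concentration-response retest of ultra-high-throughput screening hits for modulation of myocardial damage; cell death induced by hydrogen peroxide oxidative stress; compound pretreatment for 60 min then peroxide exposure for 2 h; potency is for protecting the cells against peroxide damage rather than for killing them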
[6] = target: Cytochrome P450 2C19 (Homo sapiens, UniProt P33261); assay: Cytochrome panel assay with activity outcomes. Panel member name: p450-cyp2c19 Compounds with AC50 equal or less than 10 uM are considered active; type: functional
[7] = target: Cytochrome P450 3A4 (Homo sapiens, UniProt P08684);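 also: CYP3A4 tested as one member of a cytochrome P450 panel screen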
[8] = Trypanosoma cruzi growth suppression in host cells – NIH3T3 host cells, beta-gal luminescence, confirmation (AID 2044); type: functional, cell-based;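 also: intracellular parasites grown in NIH/3T3 mouse fibroblasts as host cells; luminescent beta-galactosidase reporter signal from transgenic T. cruzi replicating inside host cells; inhibitors lower the luminescence signal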
[9] = NIH3T3 cell viability loss – ATP luminescence, mouse fibroblasts, counter-screen, dose response (AID 2010); type: functional, cell-based;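 also: cells exposed to compound for about 90 hours before reading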
[10] = tested on: INS1; assay: INS-1E survival protection against cytokine death – cell-based, luminescence, retest, dose response (AID 449756); type: functional; conditions: Rattus norvegicus;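 also: cell death triggered by IL-1 beta plus TNF-alpha plus IFN-gamma mixture; protective hits raise ATP signal compared with cytokine alone wells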
[11] = target: T3, Cytochrome P450 1A2 (Homo sapiens, UniProt P05177);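 also: PubChem cytochrome P450 panel assay, CYP1A2 panel member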
T3 sequence (P05177 whole entry): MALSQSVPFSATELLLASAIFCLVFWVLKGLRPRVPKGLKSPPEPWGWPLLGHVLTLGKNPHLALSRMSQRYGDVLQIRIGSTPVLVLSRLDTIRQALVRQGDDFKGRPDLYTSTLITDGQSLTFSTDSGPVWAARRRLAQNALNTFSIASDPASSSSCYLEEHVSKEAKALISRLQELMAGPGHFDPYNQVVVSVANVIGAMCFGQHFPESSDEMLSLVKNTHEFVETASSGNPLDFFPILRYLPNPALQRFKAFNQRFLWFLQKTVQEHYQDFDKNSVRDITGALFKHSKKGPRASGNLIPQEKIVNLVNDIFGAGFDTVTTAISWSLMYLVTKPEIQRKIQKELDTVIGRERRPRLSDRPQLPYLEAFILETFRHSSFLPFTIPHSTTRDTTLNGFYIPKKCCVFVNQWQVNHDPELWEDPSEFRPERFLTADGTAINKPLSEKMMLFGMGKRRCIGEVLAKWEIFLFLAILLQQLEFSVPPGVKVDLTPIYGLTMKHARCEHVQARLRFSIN

[12] = viability of uninfected HEp-2 cells – cell-based, HTS, cytotoxicity control for RSV inhibitor project, dose response (AID 2410); type: functional; conditions: human respiratory syncytial virus
[13] = Luminescence Cell-Based Dose Confirmation HTS to Identify Activators of 5'UTR Stem-Loop Driven Alpha-Synuclein mRNA Translation in H4 Neuroglioblastoma Cells. [Related pubchem assays: 1829 (Project Summary), 1814 (Primary HTS)]; type: functional
[14] = Luminescence Cell-Based Dose Response HTS to Identify Activators of Luciferase Translation or Activity in H4 […] Cells. [Related pubchem assays: 1829 (Project Summary), 1814 (Primary HTS)]; type: functional
[15] = tested on: H4; assay: Luminescence Cell-Based Dose Response HTS to Identify Activators of 5'UTR Stem-Loop Driven Prion Protein mRNA Translation in H4 Neuroglioblastoma Cells. [Related pubchem assays: 1829 (Project Summary), 1814 (Primary HTS)]; type: functional; conditions: Homo sapiens
[16] = tested on: Streptococcus sp. 'group A'; assay: Streptococcus pyogenes SK(-)GAS viability under kanamycin – luminescence, BacTiterGlo, confirmation, counter-screen for streptokinase expression inhibitor project, dose response (AID 1900); type: functional, organism-based
[17] = target: T4, Streptokinase A (Streptococcus pyogenes serotype M1, UniProt P10520); assay: viability-normalized secreted streptokinase activity reduction – plasminogen activation absorbance, OD405, dose response (AID 1914); type: functional, Streptococcus pyogenes M1 GAS;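 also: secreted streptokinase activity via plasminogen activation per viability signal from cell pellet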
T4 sequence (P10520 whole entry): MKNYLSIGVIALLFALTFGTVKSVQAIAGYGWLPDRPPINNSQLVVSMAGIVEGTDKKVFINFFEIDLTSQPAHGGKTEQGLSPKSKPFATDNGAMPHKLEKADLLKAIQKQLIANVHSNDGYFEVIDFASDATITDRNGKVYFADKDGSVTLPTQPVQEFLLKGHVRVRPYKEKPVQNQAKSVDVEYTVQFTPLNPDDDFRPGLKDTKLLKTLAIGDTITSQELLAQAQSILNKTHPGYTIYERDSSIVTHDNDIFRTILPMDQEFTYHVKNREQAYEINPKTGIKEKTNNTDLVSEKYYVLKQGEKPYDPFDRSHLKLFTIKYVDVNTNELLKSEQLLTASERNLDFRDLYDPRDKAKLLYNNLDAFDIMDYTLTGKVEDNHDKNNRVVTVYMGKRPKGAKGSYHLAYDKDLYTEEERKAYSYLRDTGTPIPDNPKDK

[18] = tested on: Streptococcus; assay: GAS UMAA2166 growth inhibition – luminescence, BacTiterGlo, counter-screen for streptokinase expression inhibitor project, dose response (AID 1915); type: functional, organism-based;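 also: potency for reduction of bacterial viability or growth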
[19] = target: Cytochrome P450 2C9 (Homo sapiens, UniProt P11712)
[20] = target: T2, Heat shock factor protein 1; assay: decrease of HSF1-responsive luciferase luminescence – cell-based, NIH3T3, dose retest, confirmation (AID 2382); type: functional;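 also: NIH3T3 fibroblasts with HSF1-driven luciferase reporter stressed by proteasome inhibitor MG132; luminescence from HSF1-driven luciferase expression after 8 hours of MG132 stress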

Cytochrome P450 2D6, sequence (P10635 whole entry): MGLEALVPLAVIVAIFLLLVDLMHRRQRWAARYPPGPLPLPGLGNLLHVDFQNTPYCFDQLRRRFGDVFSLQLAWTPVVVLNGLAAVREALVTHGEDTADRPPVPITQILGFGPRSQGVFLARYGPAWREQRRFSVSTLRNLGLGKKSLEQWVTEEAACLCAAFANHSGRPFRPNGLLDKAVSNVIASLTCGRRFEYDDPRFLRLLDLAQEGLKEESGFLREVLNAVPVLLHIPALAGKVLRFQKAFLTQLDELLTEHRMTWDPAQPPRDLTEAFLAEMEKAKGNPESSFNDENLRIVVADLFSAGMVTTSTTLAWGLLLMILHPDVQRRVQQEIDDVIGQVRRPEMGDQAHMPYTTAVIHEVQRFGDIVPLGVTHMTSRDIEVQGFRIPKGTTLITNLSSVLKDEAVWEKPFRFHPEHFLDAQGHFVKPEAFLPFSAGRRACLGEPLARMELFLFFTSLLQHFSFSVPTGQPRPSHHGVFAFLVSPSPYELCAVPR
Cytochrome P450 3A4, sequence (P08684 whole entry): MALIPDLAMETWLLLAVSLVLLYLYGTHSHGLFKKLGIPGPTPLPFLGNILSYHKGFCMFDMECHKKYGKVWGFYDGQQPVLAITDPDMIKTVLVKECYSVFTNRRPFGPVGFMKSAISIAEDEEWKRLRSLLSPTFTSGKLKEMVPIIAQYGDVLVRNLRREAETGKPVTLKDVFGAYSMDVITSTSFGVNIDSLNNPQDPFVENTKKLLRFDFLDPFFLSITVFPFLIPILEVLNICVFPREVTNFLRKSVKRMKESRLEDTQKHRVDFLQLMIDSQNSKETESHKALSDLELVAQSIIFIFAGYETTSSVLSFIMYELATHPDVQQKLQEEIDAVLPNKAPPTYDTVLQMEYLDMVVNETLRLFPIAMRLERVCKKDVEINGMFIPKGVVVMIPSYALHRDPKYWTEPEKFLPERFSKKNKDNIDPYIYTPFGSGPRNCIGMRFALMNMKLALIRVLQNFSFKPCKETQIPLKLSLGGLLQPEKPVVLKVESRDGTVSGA
Cytochrome P450 2C19, sequence (P33261 whole entry): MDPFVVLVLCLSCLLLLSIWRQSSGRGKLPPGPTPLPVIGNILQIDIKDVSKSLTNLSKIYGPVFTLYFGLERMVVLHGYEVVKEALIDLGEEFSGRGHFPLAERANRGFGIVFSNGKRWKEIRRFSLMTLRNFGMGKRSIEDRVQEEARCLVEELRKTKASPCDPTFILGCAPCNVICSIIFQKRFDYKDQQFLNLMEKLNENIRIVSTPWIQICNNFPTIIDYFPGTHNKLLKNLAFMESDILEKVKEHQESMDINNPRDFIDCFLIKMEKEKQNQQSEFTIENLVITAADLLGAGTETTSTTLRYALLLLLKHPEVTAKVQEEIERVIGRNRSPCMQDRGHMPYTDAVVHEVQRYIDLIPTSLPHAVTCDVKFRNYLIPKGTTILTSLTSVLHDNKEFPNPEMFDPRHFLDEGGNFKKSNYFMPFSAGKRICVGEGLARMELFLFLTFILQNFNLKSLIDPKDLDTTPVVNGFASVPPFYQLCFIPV
Cytochrome P450 2C9, sequence (P11712 whole entry): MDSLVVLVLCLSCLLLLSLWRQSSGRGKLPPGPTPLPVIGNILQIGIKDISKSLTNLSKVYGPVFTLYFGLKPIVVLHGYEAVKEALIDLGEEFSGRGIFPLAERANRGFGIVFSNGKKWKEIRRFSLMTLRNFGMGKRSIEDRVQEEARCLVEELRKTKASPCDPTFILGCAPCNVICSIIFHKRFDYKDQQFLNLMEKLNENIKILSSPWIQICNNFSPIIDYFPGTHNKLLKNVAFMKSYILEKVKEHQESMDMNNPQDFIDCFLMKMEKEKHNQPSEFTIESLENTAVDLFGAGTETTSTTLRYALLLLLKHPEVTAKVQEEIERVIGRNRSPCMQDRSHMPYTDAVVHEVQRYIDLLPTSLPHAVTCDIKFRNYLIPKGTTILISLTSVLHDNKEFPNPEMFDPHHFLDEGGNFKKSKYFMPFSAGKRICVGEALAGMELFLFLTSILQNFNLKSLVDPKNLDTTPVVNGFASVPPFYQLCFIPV

## O=C(Nc1cccc(-c2csc(Nc3ccccc3)n2)c1)c1ccccc1
[1]
  AC50: 2.96 µM (active)
[2]
  IC50: > 100 µM (inactive)

## COC(=O)[C@@]1(Cc2ccccc2)[C@H]2c3cc(C(=O)N4CCCC4)n(Cc4ccc(OC)c(OC)c4)c3C[C@H]2CN1C(=O)c1ccccc1
[3]
  AC50: 31.6 µM (inconclusive)

## CCCC12CN3CC(C)(CN(C1)C3c1ccc3c(c1)OCO3)C2=O (stereo not given)
[4]
  EC50: > 260 µM (inactive)

## CCN(CC)S(=O)(=O)c1cc([N+](=O)[O-])ccc1NNC(=O)Nc1ccccc1OC
[4]
  EC50: > 260 µM (inactive)

## Cc1ccc(NN/C=C2\C(=O)NC(=O)N(c3ccccc3)C2=O)cc1
[1]
  AC50: 2.35 µM (active)

## Cc1sc2nc(SCC(=O)N(C)C)nc(O)c2c1C
[5]
  IC50: 22.3 µM (active)

## CCC(C)N1C(=O)S/C(=C/c2ccc3c(c2)n(C)c(=O)n3C)C1=O (stereo not given)
[5]
  IC50: > 79 µM (inactive)

## NCCSc1nc2ccccc2s1
[3]
  AC50: 3.98 µM (inconclusive)

## CC1(C)CC(=O)C(C2C3=C(CC(C)(C)CC3=O)OC3=C2C(=O)CC(C)(C)C3)=C(O)C1
[4]
  EC50: > 260 µM (inactive)

## CN(C)c1ccc(-c2nc(NCCN3CCOCC3)c3ccccc3n2)cc1
[6]; read-out: AC50
  AC50: 39.8 µM (inconclusive)
[3]
  AC50: 25.1 µM (inconclusive)
[7]
  AC50: 12.6 µM (inconclusive)

## FC(F)Sc1ccc(NC2=NN=C(c3ccc4c(c3)OCCO4)CS2)cc1
[8]
  EC50: 1.99 µM (active)
[9]
  EC50: 6.72 µM (active)
[10]
  AC50: 4.4 µM (active)
[3]
  AC50: 14.1 µM (inconclusive)
[11]
  AC50: 35.5 µM (inconclusive)

## CC(C)CCN(C(=O)CNC(=O)c1ccco1)C(C(=O)NC1CCCCC1)c1ccco1 (stereo not given)
[5]
  IC50: 17.4 µM (active)

## O=C1CN(c2nc(-c3cccs3)nc3sc4c(c23)CCCC4)CCN1
[12]
  CC50: > 50 µM (active)
[13]
  EC50: 9.49 µM (active)
[14]
  EC50: 15.2 µM (active)
[15]
  EC50: 21 µM (active)

## CCOc1ccc(C(=O)NC(=S)N(Cc2ccccc2)Cc2ccccc2)cc1
[16]
  EC50: 2.46 µM (active)
[17]
  EC50: > 150 µM (not active)
[18]
  EC50: 7.11 µM (active)
[3]
  AC50: 6.31 µM (inconclusive)

## Oc1c2c(nc3cc(-c4cccc(F)c4)nn13)CCC2
[4]
  EC50: > 260 µM (inactive)

## COCCOC(=O)N/C=C\c1nc(O)c2ccccc2n1
[5]
  IC50: > 79 µM (inactive)

## CN(Cc1ccco1)c1ncnc2ccc(-c3cccc(C#N)c3)cc12
[3]
  AC50: 25.1 µM (inconclusive)
[7]
  AC50: 31.6 µM (inconclusive)
[19]
  AC50: 1.58 µM (inconclusive)

## COc1cccc(C(=O)N(Cc2ccccc2)Cc2cc3cc4c(cc3nc2O)OCCO4)c1
[3]
  AC50: 0.224 µM (inconclusive)

## CN(C)c1nc(N)nc(CSc2nnnn2-c2ccc(F)cc2)n1
[4]
  EC50: > 260 µM (inactive)

## COc1cc(C(=O)Nc2ccc(NC(=O)c3cccc(Cl)c3)nc2)cc(OC)c1OC
[5]
  IC50: 8.67 µM (active)

## FC(F)(F)c1ccc(-c2noc(CN3CCCN(C4CCCCC4)CC3)n2)cc1
[1]
  AC50: 1.79 µM (active)

## O=S(=O)(Nc1ccc2c(c1)OCCO2)c1cccs1
[13]
  EC50: 14.8 µM (active)
[14]
  EC50: 10.9 µM (active)
[15]
  EC50: 10.8 µM (active)
[20]
  EC50: 2.91 µM (active)

## Cc1ccc(-c2noc(CCC(=O)Nc3cc(C)ccn3)n2)cc1
[4]
  EC50: > 260 µM (inactive)

## O=C(Nc1nc(-c2cccc3ccccc23)cs1)c1ccc2c(c1)S(=O)(=O)c1ccccc1C2=O
[1]
  AC50: 3.99 µM (active)

## CCOC(=O)C1=C(C)N=C(C)/C(=C(/O)OCC)C1C(=O)OCC(=O)NC1CCCCC1 (stereo not given)
[5]
  IC50: 7.69 µM (active)

## C=CCC[C@H](Cc1ccc(F)cc1)C(=O)OC[C@@H](Cc1c[nH]c2ccccc12)NC(=O)[C@@H](CC=C)CC(=O)NCCO
[5]
  IC50: > 79 µM (inactive)

## Cc1c(Cl)cccc1NC(=O)CNC(=O)Cc1nnc(O)c2ccccc12
[5]
  IC50: > 79 µM (inactive)

## COc1ccc(-c2ccc3c(c2)S(=O)(=O)c2cccc(C(=O)N4CCN(c5ccccn5)CC4)c2C3=O)cc1OC
[5]
  IC50: 15 µM (active)

## O=c1c(O)c(-c2ccccc2)oc2cc(O)ccc12
[5]
  IC50: > 79 µM (inactive)

## C/C(=N\NC(=O)c1ccoc1C)c1cccc2ccccc12
[4]
  EC50: > 260 µM (inactive)

## O=c1c2cnn(-c3ccccc3)c2nnn1/N=C/c1cccnc1
[6]
  AC50: inconclusive
[3]
  AC50: 11.2 µM (inconclusive)
[11]
  AC50: 3.16 µM (inconclusive)

## COc1cc(OC)c(OC)cc1/C=N\CC1(c2ccccc2)CCCC1
[3]
  AC50: 28.2 µM (inconclusive)
[7]
  AC50: 25.1 µM (inconclusive)

## COc1ccccc1CNCCCCCCNCCCCCCCCNCCCCCCNCc1ccccc1OC [METHOCTRAMINE]
[3]
  AC50: 31.6 µM (inconclusive)
[7]
  AC50: 10 µM (inconclusive)

From ChEMBL document CHEMBL1201862, “PubChem BioAssay data set” (2004)
